Activity calls are given as the source filed them.
Tests used:
[1] = molecular target: 5-hydroxytryptamine receptor 5A (Homo sapiens, UniProt P47898); assay: Counterscreen for agonists of OPRM1-OPRD1 heterodimerization: luminescence-based cell-based high throughput dose response assay to identify agonists of 5-hydroxytryptamine (serotonin) 5A receptor (HTR5A). [Related pubchem assays (depositor defined):AID504326, AID504355, AID504692, AID504904, AID504905]; format: functional
[2] = molecular target: T1, Insulin-degrading enzyme (Homo sapiens, UniProt P14735); assay: cellular IDE activation of Abeta substrate cleavage – fluorescence polarization, HEK cells, dose response (AID 588439); format: functional, cell-based
T1 sequence (P14735 whole entry): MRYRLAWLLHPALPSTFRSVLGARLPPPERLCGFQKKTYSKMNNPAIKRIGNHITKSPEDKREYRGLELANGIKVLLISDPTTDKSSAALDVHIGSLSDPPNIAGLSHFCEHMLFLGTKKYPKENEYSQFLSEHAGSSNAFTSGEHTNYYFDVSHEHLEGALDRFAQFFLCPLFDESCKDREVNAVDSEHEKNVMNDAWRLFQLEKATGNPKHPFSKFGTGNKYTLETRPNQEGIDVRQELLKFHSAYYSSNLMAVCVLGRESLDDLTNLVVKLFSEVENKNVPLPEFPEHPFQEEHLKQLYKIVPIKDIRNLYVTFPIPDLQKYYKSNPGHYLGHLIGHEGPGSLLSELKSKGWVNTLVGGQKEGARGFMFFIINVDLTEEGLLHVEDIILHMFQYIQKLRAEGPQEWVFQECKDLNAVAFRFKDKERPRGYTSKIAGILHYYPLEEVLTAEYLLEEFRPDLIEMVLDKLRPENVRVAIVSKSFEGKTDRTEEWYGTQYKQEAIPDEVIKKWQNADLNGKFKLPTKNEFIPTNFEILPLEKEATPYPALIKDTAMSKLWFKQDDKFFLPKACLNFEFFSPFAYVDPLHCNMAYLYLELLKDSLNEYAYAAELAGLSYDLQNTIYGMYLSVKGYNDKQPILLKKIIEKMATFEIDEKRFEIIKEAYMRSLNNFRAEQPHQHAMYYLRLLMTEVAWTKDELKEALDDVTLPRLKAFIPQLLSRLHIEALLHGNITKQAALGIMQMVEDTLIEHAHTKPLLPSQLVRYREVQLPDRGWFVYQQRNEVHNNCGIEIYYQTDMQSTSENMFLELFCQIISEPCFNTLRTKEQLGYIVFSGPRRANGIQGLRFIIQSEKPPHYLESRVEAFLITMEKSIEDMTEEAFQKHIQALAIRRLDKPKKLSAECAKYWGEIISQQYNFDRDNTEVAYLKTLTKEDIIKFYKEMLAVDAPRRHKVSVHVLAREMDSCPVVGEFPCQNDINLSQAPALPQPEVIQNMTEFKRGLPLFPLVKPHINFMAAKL

[3] = molecular target: Delta-type opioid receptor (Homo sapiens, UniProt P41143); assay: Counterscreen for agonists of heterodimerization of the mu 1 (OPRM1) and delta 1 (OPRD1) opioid receptors: Luminescence-based cell-based high throughput dose response assay to identify agonists of OPRD1 homodimerization. [Related pubchem assays (depositor defined):AID504326, AID504355, AID504692, AID504904, AID504905]; format: functional
Chain of Delta-type opioid receptor (P41143 whole entry): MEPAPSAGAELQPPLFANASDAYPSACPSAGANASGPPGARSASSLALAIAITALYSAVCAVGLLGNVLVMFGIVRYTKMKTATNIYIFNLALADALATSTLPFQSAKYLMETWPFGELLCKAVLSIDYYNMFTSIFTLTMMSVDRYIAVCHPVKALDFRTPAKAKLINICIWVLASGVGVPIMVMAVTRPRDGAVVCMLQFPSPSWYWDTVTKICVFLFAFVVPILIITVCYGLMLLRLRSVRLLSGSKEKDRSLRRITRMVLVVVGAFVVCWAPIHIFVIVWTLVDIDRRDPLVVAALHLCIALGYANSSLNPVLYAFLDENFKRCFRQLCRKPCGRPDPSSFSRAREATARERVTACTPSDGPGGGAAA

[4] = molecular target: T2, Ubiquitin-conjugating enzyme E2 N (Homo sapiens, UniProt P61088); format: functional;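 note: Dose-response confirmation in a TR-FRET assay detecting UBC13-driven polyubiquitin chain formation, inhibition measured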
T2 sequence (P61088 whole entry): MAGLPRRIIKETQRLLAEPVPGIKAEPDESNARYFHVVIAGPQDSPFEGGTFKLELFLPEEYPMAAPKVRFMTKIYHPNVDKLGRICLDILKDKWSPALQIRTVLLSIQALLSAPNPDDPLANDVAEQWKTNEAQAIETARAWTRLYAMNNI

[5] = molecular target: Mu-type opioid receptor (Homo sapiens, UniProt P35372); assay: Counterscreen for agonists of heterodimerization of the mu 1 (OPRM1) and delta 1 (OPRD1) opioid receptors: Luminescence-based cell-based high throughput dose response assay to identify agonists of OPRM1 homodimerization.; format: functional;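 note: U2OS cells expressing OPRM1 and beta-arrestin as split beta-galactosidase partners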
Chain of Mu-type opioid receptor (P35372 whole entry): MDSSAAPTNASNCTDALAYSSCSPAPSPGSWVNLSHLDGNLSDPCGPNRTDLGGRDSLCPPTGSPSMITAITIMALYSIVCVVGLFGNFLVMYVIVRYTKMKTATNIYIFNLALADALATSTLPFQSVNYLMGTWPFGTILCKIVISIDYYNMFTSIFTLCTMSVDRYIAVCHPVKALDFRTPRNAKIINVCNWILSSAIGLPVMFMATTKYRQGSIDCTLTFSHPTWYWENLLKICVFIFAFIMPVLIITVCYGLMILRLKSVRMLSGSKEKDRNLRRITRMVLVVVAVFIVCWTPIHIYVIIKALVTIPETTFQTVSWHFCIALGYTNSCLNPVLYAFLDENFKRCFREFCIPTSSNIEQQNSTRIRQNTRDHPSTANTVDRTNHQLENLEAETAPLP

[6] = molecular target: T3, Alkaline phosphatase, tissue-nonspecific isozyme (Homo sapiens, UniProt P05186); assay: TNAP enzyme inhibition by screening hits, dose response, selectivity assay for mouse IAP inhibitor project, biochemical, human TNAP, uHTS hits (AID 488906); format: functional
T3 sequence (P05186 whole entry): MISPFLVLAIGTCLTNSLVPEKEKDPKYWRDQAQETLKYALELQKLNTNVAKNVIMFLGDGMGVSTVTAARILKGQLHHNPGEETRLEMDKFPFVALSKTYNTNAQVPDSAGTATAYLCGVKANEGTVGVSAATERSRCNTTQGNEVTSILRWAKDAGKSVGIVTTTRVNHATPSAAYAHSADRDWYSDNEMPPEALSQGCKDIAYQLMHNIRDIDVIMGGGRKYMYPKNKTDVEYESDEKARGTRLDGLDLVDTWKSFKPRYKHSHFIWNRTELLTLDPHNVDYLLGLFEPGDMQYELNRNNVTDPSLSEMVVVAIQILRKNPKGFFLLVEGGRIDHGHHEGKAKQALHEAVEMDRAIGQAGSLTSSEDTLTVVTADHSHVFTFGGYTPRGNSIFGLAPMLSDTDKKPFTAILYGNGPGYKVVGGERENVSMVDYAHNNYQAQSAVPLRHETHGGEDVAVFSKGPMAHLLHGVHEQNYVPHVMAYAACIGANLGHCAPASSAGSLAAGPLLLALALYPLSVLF

Chain of 5-hydroxytryptamine receptor 5A (P47898 whole entry): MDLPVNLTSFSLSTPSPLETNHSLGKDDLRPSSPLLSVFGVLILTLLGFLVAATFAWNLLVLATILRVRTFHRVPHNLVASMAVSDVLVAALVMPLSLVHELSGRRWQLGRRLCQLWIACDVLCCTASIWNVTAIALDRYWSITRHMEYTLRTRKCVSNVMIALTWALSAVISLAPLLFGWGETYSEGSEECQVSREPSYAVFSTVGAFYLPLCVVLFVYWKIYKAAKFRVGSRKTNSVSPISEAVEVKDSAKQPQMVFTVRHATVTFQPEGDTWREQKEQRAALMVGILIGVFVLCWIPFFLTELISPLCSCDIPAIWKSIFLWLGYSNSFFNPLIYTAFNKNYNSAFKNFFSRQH

Compound: Clc1ccc(C(c2ccc(Cl)cc2)n2cc[n+](CC(OCc3ccc(Cl)cc3Cl)c3ccc(Cl)cc3Cl)c2)cc1 (stereo unspecified) [CALMIDAZOLIUM CHLORIDE]
- EC50 [1]: > 92.5 µM (inactive)
- EC50 [2]: > 2.03 µM (active)
- EC50 [3]: > 92.5 µM (inactive)
- IC50 [4]: 10.9 µM (active)
- EC50 [5]: > 92.5 µM (inactive)
- IC50 [6]: > 100 µM (inactive)

Source: ChEMBL document CHEMBL1201862, “PubChem BioAssay data set” (2004)
